Results as given in US9079930B2, “Substituted pyrimidines” (MERCK SHARP & DOHME CORP., priority 2011, dated 2015).

Molecular target: T1, FLAG-tagged full length PHD2 (Homo sapiens, UniProt Q9GZT9)
T1 construct: FLAG-tagged full length PHD2 expressed in and purified from baculovirus-infected Sf9 cells; FLAG; made in house; host or cells: baculovirus-infected Sf9 cells
Assay: PHD2 inhibition assay (time resolved fluorescence, HIF-1α peptide hydroxylation, VHL complex detection)
Assay type: biochemical
Details: 0.2 μM 2-oxoglutarate, 0.5 μM HIF-1α peptide
Procedure: To each well of a 96-well plate was added 1 μL of test compound in DMSO and 20 μl of assay buffer (50 mM Tris pH 7.4/0.01% Tween-20/0.1 mg/ml bovine serum albumin/10 μM ferrous sulfate/i mM sodium ascorbate/20 μg/ml catalase) containing 0.15 μg/ml FLAG-tagged full length PHD2 expressed in and purified from baculovirus-infected Sf9 cells. After a 30 min preincubation at room temperature, the enzymatic reactions were initiated by the addition of 4 μL of substrates (final concentrations of 0.2 μM 2-oxoglutarate and 0.5 μM HIF-1α peptide biotinyl-DLDLEMLAPYIPMDDDFQL (SEQ ID NO: 1)). After 2 hr at room temperature, the reactions were terminated and signals were developed by the addition of a 25 μL quench/detection mix to a final concentration of 1 mM ortho-phenanthroline, 0.1 mM EDTA, 0.5 nM anti-(His)6 LANCE reagent (Perkin-Elmer Life Sciences), 100 nM AF647-labeled streptavidin (Invitrogen), and 2 μg/ml (His)6-VHL complex (S. Tan (2001) Protein Expr. Purif. 21, 224-234). The ratio of time resolved fluorescence signals at 665 and 620 nm was determined, and percent inhibition was calculated relative to an uninhibited control sample run in parallel.

T1 sequence (Q9GZT9 whole entry): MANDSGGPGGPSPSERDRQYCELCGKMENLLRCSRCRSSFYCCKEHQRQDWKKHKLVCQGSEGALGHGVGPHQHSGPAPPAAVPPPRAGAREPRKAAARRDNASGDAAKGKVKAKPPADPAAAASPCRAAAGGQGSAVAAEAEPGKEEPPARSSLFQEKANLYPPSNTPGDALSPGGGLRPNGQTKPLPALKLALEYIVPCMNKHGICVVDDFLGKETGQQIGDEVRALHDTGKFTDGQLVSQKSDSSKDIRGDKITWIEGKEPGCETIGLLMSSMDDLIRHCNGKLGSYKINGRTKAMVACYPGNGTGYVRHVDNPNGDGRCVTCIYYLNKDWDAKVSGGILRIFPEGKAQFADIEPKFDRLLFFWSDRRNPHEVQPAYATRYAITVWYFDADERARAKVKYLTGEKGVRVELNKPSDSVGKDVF

Row | IC50 | SMILES
1 | 0.5 to 20 nM | CC(C)(NC(=O)c1cnc(-c2cccnn2)nc1O)c1ccc(-c2ccc(P(=O)(O)O)cc2)nc1 [Compound 33-1, 4-(5-(2-(4-hydroxy-2-(pyridazin-3-yl)pyrimidine-5-carboxamido)propan-2-yl)pyridine-2-yl)phenylphosphonic acid]
2 | 0.5 to 20 nM | COc1ccc(C(NC(=O)c2cnc(-c3cccnn3)nc2O)c2cccc(P(=O)(O)O)c2)cc1 (stereo not drawn) [Compound 34-1, 3-((4-hydroxy-2-(pyridazin-3-yl)pyrimidine-5-carboxamido)(4-methoxyphenyl)methyl)phenylphosphonic acid]
3 | 100 to 10000 nM | O=C(Cc1cccc(P(=O)(O)O)c1)Nc1cnc(-c2cccnn2)nc1O [Compound 35-1, 3-(2-(4-hydroxy-2-(pyridazin-3-yl)pyrimidin-5-ylamino)-2-oxoethyl)phenyl phosphonic acid]
4 | 20 to 100 nM | COc1ccc(C(NC(=O)c2cnc(-c3cccnn3)nc2O)P(=O)(O)O)cc1 (stereo not drawn) [Compound 36-1, (4-Hydroxy-2-(pyridazin-3-yl)pyrimidine-5-carboxamido)(4-methoxyphenyl)methyl phosphonic acid]

The remaining lines, values behind:

Row | SMILES | IC50
5 | COc1ccc(C(NC(=O)c2cnc(-c3cccnn3)nc2O)P(=O)(O)O)cc1 (stereo not drawn) [Compound 30-2, (4-Hydroxy-2-(pyridazin-3-yl)pyrimidine-5-carboxamido)(4-methoxyphenyl)methyl phosphonic acid] | 0.5 to 20 nM
6 | O=C(NC(c1ccc2ccccc2c1)P(=O)(O)O)c1cnc(-c2cccnn2)nc1O (stereo not drawn) [Compound 30-3, (4-Hydroxy-2-(pyridazin-3-yl)pyrimidine-5-carboxamido)(naphthalen-2-yl)methyl phosphonic acid] | 0.5 to 20 nM
7 | CCOC(=O)CNP(=O)(NCC(=O)OCC)c1ccc(C(NC(=O)c2cnc(-c3cccnn3)nc2O)c2ccc(OC)cc2)cc1 (stereo not drawn) [Compound 31-1, Diethyl 2,2′-((4-((4-hydroxy-2-(pyridazin-3-yl)pyrimidine-5-carboxamido)(4-methoxyphenyl)methyl)phenyl)phosphoryl)bis(azanediyl)diacetate] | 0.5 to 20 nM
8 | CCOC(=O)[C@H](C)NP(=O)(N[C@@H](C)C(=O)OCC)c1ccc(C(NC(=O)c2cnc(-c3cccnn3)nc2O)c2ccc(OC)cc2)cc1 (stereo partly drawn) [Compound 31-2, (2S,2′S)-Diethyl 2,2′-((4-((4-hydroxy-2-(pyridazin-3-yl)pyrimidine-5-carboxamido)(4-methoxyphenyl)methyl)phenyl)phosphoryl)bis(azanediyl)dipropanoate] | 0.5 to 20 nM
9 | COc1ccc(C(NC(=O)c2cnc(-c3cccnn3)nc2O)c2ccc(CP(=O)(O)O)cc2)cc1 (stereo not drawn) [Compound 32-1, 4-((4-hydroxy-2-(pyridazin-3-yl)pyrimidine-5-carboxamido)(4-methoxyphenyl)methyl)benzylphosphonic acid] | 0.5 to 20 nM
